# Experiment: Stability studies of sirolimus particles packed in vacuum sealed impermeable container at 25° C. and 60% RH, impurities by gradient HPLC
# Type: physicochemical
# Conditions: three months
# Source text: Sirolimus particles (d90-4.1 micron) were packed in a bag made up of laminate having a polyester and a polyethylene layer wherein the layers have a thickness of 12 micron and 75 micron, respectively. The bag was sealed under vacuum. The vacuum sealed bag was put into second bag made up of laminate having polyester, aluminium foil, polyester and polyethylene layer wherein the layers have a thickness of 12 micron, 12 micron, 12 micron and 75 microns, respectively. The second bag was sealed under vacuum and was subjected to stability studies at 25° C. and 60% RH for three months.
# Quantitative determination was carried out using Gradient High Performance Liquid Chromatography with a mixture of ammonium phosphate buffer and an organic phase (acetonitrile and tetrahydrofuran) as the mobile phase, ACE C18, HL, 5 μm column as a stationary phase and a UV detector.
structure (smiles),measurement,value
"CO[C@H]1C[C@@H]2CC[C@@H](C)[C@@](O)(O2)C(=O)C(=O)N2CCCC[C@H]2C(=O)O[C@H]([C@H](C)C[C@@H]2CC[C@@H](O)[C@H](OC)C2)CC(=O)[C@H](C)/C=C(\C)[C@@H](O)[C@@H](OC)C(=O)[C@H](C)C[C@H](C)/C=C/C=C/C=C/1C [sirolimus particles, Sirolimus]",Stability on storage,stable
